How the values were obtained:
[1] = tested on: Plasmodium falciparum K1 strain; assay: Anti-Plasmodium activity assay (Malstat); type: cell-based; conditions: P. falciparum K1, 72 h
Method: (§1) The compound set was tested against the following parasites: intra-erythrocytic forms in human red blood cells of P. falciparum K1 strain (malaria), [16], [32], [33], [35], bloodstream forms of T. brucei Squib 427 strain (human African trypanosomiasis, HAT), [31], [32], [34], intracellular amastigotes of T. cruzi Tulahuen CL2, beta- galactosidase strain (Chagas' Disease), [32]–[35], intracellular amastigotes of L. infantum MHOM/MA(BE)/67 (leishmaniasis), [32]–[36], larval and/or adult worms of S. mansoni Puerto Rican strain (schistosomiasis), [31], [37], microfilariae of B. malayi (lymphatic filariasis), [30] and microfilariae of O. ochengi or O. lienalis (onchocerciasis), [30]. It should be noted that the human pathogen for onchocerciasis is Onchocerca volvulus, but due to lack of a suitable in vitro assay or animal models for this pathogen, O. ochengi and lienalis, which are both animal pathogens, are used in the primary and secondary assays, [30].

[2] = tested on: Schistosoma mansoni adult worms; assay: Anti-Schistosoma activity assay (adult worm motility); type: cell-based; conditions: S. mansoni adult worms; 12.5 µM (method: 10 µg/ml or 12.5 µM)
Method: as §1
A subset of 9478 of the 10,000 compound collection was tested against the Puerto Rican strain of S. mansoni. 6144 of these were tested in a primary larval assay followed by the ex-vivo adult secondary screen. The remainder was screened only in the adult assay. […] The 65 compounds were sorted by chemical attractiveness, potency against adult schistosomes in culture, selectivity against other parasites, and toxicity to mammalian cells in culture. Based on this analysis, 5 series encompassing 13 compounds were chosen for advancement through the African Network for Drug and Diagnostic Innovation (ANDI) and other PDPs. Representative structures [structures # 13, 27, 28] are shown (Table S1). These compounds are unburdened by obvious toxic moieties, have acceptable compliance with the Lipinski rules, are selectively active against schistosomes and are not overtly toxic to mammalian cells. It has unfortunately not been possible to titrate all of these hits in culture; of about 50% for which such data are available, none has an IC50<2 µg/ml (which is the initial potency criteria).

[3] = tested on: Trypanosoma brucei brucei Squib-427 strain; assay: Antitrypanosomal activity assay, T. brucei (resazurin); type: cell-based; conditions: T. brucei Squib 427 bloodstream forms, 72 h
Method: as §1

[4] = tested on: Onchocerca (lienalis or ochengi) microfilariae; assay: Anti-Onchocerca microfilariae motility assay; type: cell-based, Onchocerca lienalis or O. ochengi
Method: as §1
4240 compound s were screened against O. ochengi at the University of Buea in Cameroon, while a subset of […] compounds was successfully screened in UK by the Northwick Park Institute for Medical Research against O. lienalis, at a uniform molarity. […] After removing molecules that were toxic to mammalian cells (IC50<5 µg/ml), 292 molecules remained for further evaluation. […] From the latter sub-set, […] distinct chemical series and one singleton [structure # 35] were active against both microfilaria and adults. One series [structures # 2, 3] was deemed not interesting due to lack of selectivity against mammalian cells. The remaining series is being transferred to ANDI for further progression as part of a new collaboration.

[5] = tested on: Brugia malayi microfilariae; assay: Anti-Brugia malayi microfilariae motility assay; type: cell-based; conditions: B. malayi microfilariae; 12.5 µM
Method: as §1
As result of logistics issues attributed to lost shipments of some compounds, only 6160 molecules of the 10,000 compound set were tested, at a uniform molarity, against B. malayi, including 6063 against microfilariae and 756 against adult worms (these sets overlap). […] Greatest priority was given to compounds with activity against adult worms, as no macrofilaricide is available for use in control campaigns and the activity of ivermectin as a microfilaricidal agent is unlikely to be bettered in a new series. Of the test set, 53 compounds met the activity criterion for microfilariae (100% motility reduction) and an additional 58 inhibited adult worm motility ≥75% at 10 µM. These were titrated to determine an IC50 value to support prioritization. Following cytotoxicity triage [structures # 1, 4, 6], eight compounds met the activity criterion for adult worms (i.e., 100% inhibition of adult worm motility), four of which were also active against microfilariae [structures # 14, 29, 30, 32]. […] Of these, the most interesting was TDR76699 [structure # 29]; this compound has very good activity against adult worms (IC50 = 0.1 µg/ml) and is also active against microfilariae (IC50 = 0.7 µg/ml). None of the other compounds tested against adult parasites had IC50 values ≤0.5 µg/ml, a threshold which would reduce concerns about specificity. However, a few series [structures # 31, 33, 34], appear interesting for future medicinal chemistry projects.

[6] = tested on: MRC-5 cell line (diploid human embryonic lung fibroblast); assay: Cytotoxicity on MRC-5 cells; type: cell-based
Text: [table] An important part of the screen is the evaluation of all compounds for cytotoxicity using the diploid human embryonic lung fibroblast MRC-5 cell line (Figure 2). Further evaluation of cytotoxicity also takes advantage of the assays for intracellular protozoan parasites, as in the case of L. infantum and T. cruzi, which include murine peritoneal macrophage host cells and MRC-5SV2 human lung fibroblast cells, respectively, in the culture system.

[7] = tested on: Trypanosoma cruzi, Tulahuen CL2 strain; assay: Antitrypanosomal activity assay, T. cruzi in MRC-5 cells; type: cell-based; conditions: T. cruzi Tulahuen CL2 in MRC-5 cells, 7 days
Method: as §1
171 of the 744 actives passed the initial criterion of IC50<1 µg/ml for T. cruzi Tulahuen CL2, beta galactosidase strain maintained on MRC-5SV2 cells in MEM medium (MRC-5 cell/parasite inoculum: 4.10^3 cells/well+4.10^4 parasites/well), supplemented with […] L-glutamine, 16.5 mM NaHCO3 and 5% heat inactivated fetal calf serum. […] Of these, 109 were eliminated [structures #1–6] for poor selectivity versus mammalian cells (SI<50) and an additional 11 due to undesirable chemical attributes. The remaining 51 compounds were sorted into 10 series (45 compounds) and 6 singletons [structures # 21, 22]. Two of these series with excellent potency against T. cruzi, limited activity against other protozoa and SI values >50 (not shown), have been transferred to DNDi for further evaluation.

SMILES | MAL IC50 [1] [µg/mL] | SCH % Motility Reduction at 12.5µM [2] [%] | HAT IC50 [3] [µg/mL] | ONC/MF % Motility Reduction at 12.5µM [4] [%] | LF/MF % Motility Reduction at 12.5µM [5] [%] | CYT IC50 [6] [µg/mL] | CHA IC50 [7] [µg/mL]
Cc1c(C(=O)N2CCC(C)CC2)sc2nc(-c3ccc(F)cc3)cn12 [TDR77657] | >10.72 | 0 | 0.42 | 0 | 0 | >10.72 | >10.72
O=S(=O)(NCC(c1cccnc1)N1CCN(Cc2ccccc2)CC1)c1ccc(Cl)cc1 (centres unmarked) [TDR78023] | 2.18 | 0 | >14.13 | 0 | – | >14.13 | 0.63
C=CCN(CC=C)S(=O)(=O)c1ccc(C(=O)Nc2nc3ccc(C(C)C)cc3s2)cc1 [TDR78794] | >10.99 | 100 | >10.99 | 0 | – | >10.99 | 4.48
O=C(CSc1ccc2nnc(-c3ccccn3)n2n1)NCC1CCCO1 (centres unmarked) [TDR78834] | 3.15 | 0 | 3.3 | 0 | – | >12.1 | 5.2
COc1ccc(N2CCCS2(=O)=O)cc1NC(=O)c1cc(Cl)ccc1OC [TDR79456] | >12.3 | 4 | 4.3 | 13.3 | – | >12.3 | 5.0
O=C(Nc1nc(-c2ccncc2)cs1)C1CCCN(S(=O)(=O)c2ccc(Cl)s2)C1 (centres unmarked) [TDR80165] | 6.68 | 0 | 4.5 | 50 | – | >14.07 | 0.24
O=C(CN1CCC(C(=O)Nc2ccc(Oc3ccccc3)cc2)CC1)Nc1ccc(F)cc1 [TDR80731] | >13.43 | 0 | >13.43 | 0 | – | >13.43 | >13.43
Cc1ccc(N2CCn3c2nnc(C(=O)NCCC2=CCCCC2)c3=O)cc1 [TDR81281] | 0.15 | 0 | >11.38 | 0 | – | >11.38 | >11.38
CCOc1ccc2nc(N(Cc3cccnc3)C(=O)c3ccc(Cl)s3)sc2c1 [TDR81636] | 3.55 | 0 | 3.52 | 11 | 0 | >12.2 | 0.66

Source: paper PMC3243694, “Integrated Dataset of Screening Hits against Multiple Neglected Disease Pathogens” (PLoS Neglected Tropical Diseases, 2011)
